Measurements: publication PMC4959752, “Pharmacokinetics in Wistar Rats of 5-[(4-Carboxybutanoyl)Amino]-2-Hydroxybenzoic Acid: A Novel Synthetic Derivative of 5-Aminosalicylic Acid (5-ASA) with Possible Anti-Inflammatory Activity” (PLoS ONE, 2016)
Read-outs that look alike come from different tables or passages of the source.

Assays:
[1] = Plasma protein binding assay (ultrafiltration); assay type: in vitro ADME; settings: Wistar, rat; for fraction unbound at 4 h, 1 μg/mL / fraction unbound at 4 h, 5 μg/mL / fraction unbound at 4 h, 10 μg/mL / fraction unbound at 4 h, 20 μg/mL: ultrafiltration, 37°C
Experimental: The resulting samples were incubated for 4 h at 37°C. After incubation, a 100 μL aliquot was removed to analyze the total concentration, and the remaining 500 μL was transferred to a 10 kD cut-off ultrafiltration device (Millipore Corporation, USA), which was centrifuged at 2,000 g for 2 h at 37°C. A 100 μL aliquot of centrifuged plasma was analyzed for the free drug concentration using the RP-HPLC method. The amount of the test compound in the ultrafiltrate was determined by interpolating the main areas of the samples on standard curves containing known amounts of C2. The percentage of protein binding was calculated using the following formula: Protein binding ratio (%) = […].

[2] = Stability of C2 in rat plasma samples; assay type: in vitro ADME; settings: for Difference respect the nominal concentration (%): rat plasma deproteinized samples
Experimental: The stability of C2 in plasma was evaluated using the QC samples at two concentrations by triplicate ([…]); these samples were stored at 25°C for 12, 24 and 36 h (short-term stability) and subjected to three freeze-thaw cycles (–20°C to 25°C). The post-preparative storage was evaluated by analyzing the ready-to-inject samples that had been refrigerated 4°C for 12, 24 and 36 h. The concentration of C2 after each storage period was related to the initial concentration of freshly prepared and immediately processed samples [40, 41].

MPO = system: MPO; design: method as in ref 34 = [34]; 34 Gutiérrez Sánchez M , Rosales-Hernández MC , Padilla-Martínez II , Correa-Basurto J , Mendieta-Wejebe JE . In vivo evaluation of two 5-aminosalicylic acid derivatives considered as potential therap; settings: model of inflammation in the mouse ear; cited from earlier work
[3] = read-out: % Bound fraction of C2 in rat plasma ± SD (converted)
[4] = read-out: % Unbound fraction of C2 in rat plasma ± SD

For `O=C(O)CCCC(=O)Nc1ccc(O)c(C(=O)O)c1` [C2, 5-[(4-carboxybutanoyl)amino]-2-hydroxybenzoic acid], the fraction unbound at 4 h, 1 μg/mL [1, 3] was 0.921, the fraction unbound at 4 h, 1 μg/mL [1, 4] was 0.921 ± 0.023 and the fraction unbound at 4 h, 5 μg/mL [1, 3] was 0.925. It also gave a fraction unbound at 4 h, 5 μg/mL [1, 4] of 0.925 ± 0.018, a fraction unbound at 4 h, 10 μg/mL [1, 3] of 0.919 and a fraction unbound at 4 h, 10 μg/mL [1, 4] of 0.919 ± 0.007. It also gave a fraction unbound at 4 h, 20 μg/mL [1, 3] of 0.898, a fraction unbound at 4 h, 20 μg/mL [1, 4] of 0.898 ± 0.008 and a fraction unbound at 4 h ([1]; concentrations of 1 to 20 μg/mL, read-out: unbound fraction) of 0.898 to 0.925. For the same compound, the fraction unbound at 4 h ([1]; summary in discussion, read-out: protein binding (converted)) was 0.9, the “Difference respect the nominal concentration (%)” value ([2]; Refrigeration (4°C), 12 h, 1 μg/mL) was 0.8% and the “Difference respect the nominal concentration (%)” value ([2]; Refrigeration (4°C), 12 h, 2.5 μg/mL) was 1.5%. For the same compound, the “Difference respect the nominal concentration (%)” value ([2]; Refrigeration (4°C), 12 h, 25 μg/mL) was 0.1%, the “Difference respect the nominal concentration (%)” value ([2]; Refrigeration (4°C), 12 h, 100 μg/mL) was 0.5% and the “Difference respect the nominal concentration (%)” value ([2]; Refrigeration (4°C), 24 h, 1 μg/mL) was 2.2%. For the same compound, the “Difference respect the nominal concentration (%)” value ([2]; Refrigeration (4°C), 24 h, 2.5 μg/mL) was 2.6%, the “Difference respect the nominal concentration (%)” value ([2]; Refrigeration (4°C), 24 h, 25 μg/mL) was 3.1% and the “Difference respect the nominal concentration (%)” value ([2]; Refrigeration (4°C), 24 h, 100 μg/mL) was 0.4%. The “Difference respect the nominal concentration (%)” value ([2]; Refrigeration (4°C), 36 h, 1 μg/mL) was 5.3%, the “Difference respect the nominal concentration (%)” value ([2]; Refrigeration (4°C), 36 h, 2.5 μg/mL) was 2.9% and the “Difference respect the nominal concentration (%)” value ([2]; Refrigeration (4°C), 36 h, 25 μg/mL) was 4.3%. The “Difference respect the nominal concentration (%)” value ([2]; Refrigeration (4°C), 36 h, 100 μg/mL) was 0.6%, the “Difference respect the nominal concentration (%)” value ([2]; Room Temperature (25°C), 12 h, 1 μg/mL) was 1.4% and the “Difference respect the nominal concentration (%)” value ([2]; Room Temperature (25°C), 12 h, 2.5 μg/mL) was 1.0%. The “Difference respect the nominal concentration (%)” value ([2]; Room Temperature (25°C), 12 h, 25 μg/mL) was 0.3%, the “Difference respect the nominal concentration (%)” value ([2]; Room Temperature (25°C), 12 h, 100 μg/mL) was 0.3% and the “Difference respect the nominal concentration (%)” value ([2]; Room Temperature (25°C), 24 h, 1 μg/mL) was 2.1%. The “Difference respect the nominal concentration (%)” value ([2]; Room Temperature (25°C), 24 h, 2.5 μg/mL) was 2.3%, the “Difference respect the nominal concentration (%)” value ([2]; Room Temperature (25°C), 24 h, 25 μg/mL) was 2.9% and the “Difference respect the nominal concentration (%)” value ([2]; Room Temperature (25°C), 24 h, 100 μg/mL) was 0.7%. The “Difference respect the nominal concentration (%)” value ([2]; Room Temperature (25°C), 36 h, 1 μg/mL) was 5.8%, the “Difference respect the nominal concentration (%)” value ([2]; Room Temperature (25°C), 36 h, 2.5 μg/mL) was 2.6% and the “Difference respect the nominal concentration (%)” value ([2]; Room Temperature (25°C), 36 h, 25 μg/mL) was 3.7%. For the same compound, the “Difference respect the nominal concentration (%)” value ([2]; Room Temperature (25°C), 36 h, 100 μg/mL) was 1.7%, the “Difference respect the nominal concentration (%)” value ([2]; freeze–thaw (–20 to 25°C), Cycle 2 (24 h), 1 μg/mL) was 2.7% and the “Difference respect the nominal concentration (%)” value ([2]; freeze–thaw (–20 to 25°C), Cycle 2 (24 h), 2.5 μg/mL) was 2.9%. The “Difference respect the nominal concentration (%)” value ([2]; freeze–thaw (–20 to 25°C), Cycle 2 (24 h), 25 μg/mL) was 1.7%, the “Difference respect the nominal concentration (%)” value ([2]; freeze–thaw (–20 to 25°C), Cycle 2 (24 h), 100 μg/mL) was 0.5% and the “Difference respect the nominal concentration (%)” value ([2]; freeze–thaw (–20 to 25°C), Cycle 3 (36 h), 1 μg/mL) was 6.0%. The “Difference respect the nominal concentration (%)” value ([2]; freeze–thaw (–20 to 25°C), Cycle 3 (36 h), 2.5 μg/mL) was 5.1%, the “Difference respect the nominal concentration (%)” value ([2]; freeze–thaw (–20 to 25°C), Cycle 3 (36 h), 25 μg/mL) was 1.7% and the “Difference respect the nominal concentration (%)” value ([2]; freeze–thaw (–20 to 25°C), Cycle 3 (36 h), 100 μg/mL) was 0.6%. The “Difference respect the nominal concentration (%)” value ([2]; freeze–thaw (–20 to 25°C), cycle 1 (12 h), 1 μg/mL) was 1.8%, the “Difference respect the nominal concentration (%)” value ([2]; freeze–thaw (–20 to 25°C), cycle 1 (12 h), 2.5 μg/mL) was 1.8% and the “Difference respect the nominal concentration (%)” value ([2]; freeze–thaw (–20 to 25°C), cycle 1 (12 h), 25 μg/mL) was 2.0%. The “Difference respect the nominal concentration (%)” value ([2]; freeze–thaw (–20 to 25°C), cycle 1 (12 h), 100 μg/mL) was 0.5%, the “stability in rat plasma” value ([2]; stored at 4°C and 25°C for 36 h) was “stable” and the “effect on catalytic activity of MPO” value (MPO) was “inhibited the catalytic activity of MPO”.
